Reference: ChEMBL document CHEMBL3352405, “Design and synthesis of sulfamoyl benzoic acid analogues with subnanomolar agonist activity specific to the LPA2 receptor” (J Med Chem, 2014)

How the values were obtained:
[1] = target: T1, Lysophosphatidic acid receptor 2 (Homo sapiens, UniProt Q9HBW0); assay: Agonist activity at human LPA2 expressed in LPA1xLPA2 double knockout mouse MEF cells by Fura-2AM dye based Ca2+ mobilization assay relative to LPA 18:1; format: functional, cell-based
[2] = target: T1, Lysophosphatidic acid receptor 2; assay: Agonist activity at human LPA2 expressed in LPA1xLPA2 double knockout mouse MEF cells by Fura-2AM dye based Ca2+ mobilization assay; format: functional, cell-based
[3] = target: Lysophosphatidic acid receptor 1 (Homo sapiens, UniProt Q92633); assay: Agonist activity at human LPA1 expressed in RH7777 cells up to 10 uM by Fura-2AM dye based Ca2+ mobilization assay
[4] = target: T2, Lysophosphatidic acid receptor 3 (Homo sapiens, UniProt Q9UBY5); assay: Antagonist activity at human LPA3 expressed in RH7777 cells assessed as reduction in […]-induced calcium mobilization by Fura-2AM dye based Ca2+ mobilization assay
T2 sequence (Q9UBY5 whole entry): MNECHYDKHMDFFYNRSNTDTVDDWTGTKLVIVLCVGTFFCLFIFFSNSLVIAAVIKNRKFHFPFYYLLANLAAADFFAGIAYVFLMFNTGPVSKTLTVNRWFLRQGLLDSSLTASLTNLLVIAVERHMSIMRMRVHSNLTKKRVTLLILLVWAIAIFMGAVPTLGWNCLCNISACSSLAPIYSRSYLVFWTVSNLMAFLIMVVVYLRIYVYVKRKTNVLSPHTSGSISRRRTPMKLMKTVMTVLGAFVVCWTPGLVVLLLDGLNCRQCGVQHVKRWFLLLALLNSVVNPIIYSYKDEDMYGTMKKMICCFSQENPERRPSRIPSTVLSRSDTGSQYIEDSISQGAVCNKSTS

T1 sequence (Q9HBW0 whole entry): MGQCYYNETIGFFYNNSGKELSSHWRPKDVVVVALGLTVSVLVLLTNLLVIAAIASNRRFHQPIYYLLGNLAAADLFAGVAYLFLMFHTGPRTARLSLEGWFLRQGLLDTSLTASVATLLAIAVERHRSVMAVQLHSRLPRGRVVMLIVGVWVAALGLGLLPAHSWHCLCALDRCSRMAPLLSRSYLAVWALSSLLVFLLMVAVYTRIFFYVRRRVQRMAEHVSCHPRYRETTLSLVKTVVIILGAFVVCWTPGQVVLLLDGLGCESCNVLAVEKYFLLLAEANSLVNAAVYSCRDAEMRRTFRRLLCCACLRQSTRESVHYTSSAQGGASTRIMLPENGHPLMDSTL
Chain of Lysophosphatidic acid receptor 1 (Q92633 whole entry): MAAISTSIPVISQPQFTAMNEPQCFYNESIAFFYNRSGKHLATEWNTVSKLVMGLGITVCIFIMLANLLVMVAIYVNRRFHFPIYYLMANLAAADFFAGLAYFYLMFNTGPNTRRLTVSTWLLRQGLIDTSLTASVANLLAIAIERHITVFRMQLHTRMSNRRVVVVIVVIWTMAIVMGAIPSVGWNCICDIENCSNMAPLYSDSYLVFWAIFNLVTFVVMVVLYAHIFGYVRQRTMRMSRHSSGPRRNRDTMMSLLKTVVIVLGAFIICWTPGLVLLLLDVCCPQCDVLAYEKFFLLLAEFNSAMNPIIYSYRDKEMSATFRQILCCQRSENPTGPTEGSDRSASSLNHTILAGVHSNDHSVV

Emax [1]	EC50 [2]	EC50 [3]	IC50 [4]	SMILES
124%				O=C(O)c1cc(Cl)ccc1S(=O)(=O)NCCCCN1C(=O)c2cccc3cccc(c23)C1=O
	2160 nM			O=C(O)c1ccccc1S(=O)(=O)NCCCN1C(=O)c2cccc3cccc(c23)C1=O
100%	50 nM			O=C(O)c1ccc(Br)cc1S(=O)(=O)NCCCCN1C(=O)c2cccc3cccc(c23)C1=O
100%	1420 nM			O=C(O)c1ccccc1S(=O)(=O)NCCCCCN1C(=O)c2cccc3cccc(c23)C1=O
119%	0.15 nM			O=C(O)c1cc(F)ccc1S(=O)(=O)NCCCCN1C(=O)c2cccc3cccc(c23)C1=O
104%	60 nM			O=C(O)c1cc(Br)ccc1S(=O)(=O)NCCCCN1C(=O)c2cccc3cccc(c23)C1=O
100%				O=C(O)c1ccc2c(c1)S(=O)(=O)N(CCCCN1C(=O)c3cccc4cccc(c34)C1=O)C2=O
		350 nM		CCCCCCCC/C=C\CCCCCCCC(=O)OC[C@@H](O)COP(=O)(O)O [LYSOPHOSPHATIDIC ACID]
75%			6600 nM	O=C(O)c1ccccc1SCCCN1C(=O)c2cccc3cccc(c23)C1=O
100%	110 nM			O=C(O)c1ccccc1S(=O)(=O)NCCCCN1C(=O)c2cccc3cccc(c23)C1=O
